Assay results taken from patent publication US20240009191A1, “METHOD AND COMPOSITION FOR THE TREATMENT OF DISEASE” (DIMERIX BIOSCIENCE PTY LTD, priority 2019, published 2024).
“Also recorded” adds a separate entry of the source.

Assays:
CXCR2 = molecular target: T1, CXCR2 (Homo sapiens, UniProt P25025); experiment: BRET trafficking of CXCR2/Rluc8 to Venus/Kras or Venus/Rab markers, absence of AT1R; type: cell-based; conditions: 100 nM CXCL8, 1 μM AngII
T1 sequence (P25025 1-360): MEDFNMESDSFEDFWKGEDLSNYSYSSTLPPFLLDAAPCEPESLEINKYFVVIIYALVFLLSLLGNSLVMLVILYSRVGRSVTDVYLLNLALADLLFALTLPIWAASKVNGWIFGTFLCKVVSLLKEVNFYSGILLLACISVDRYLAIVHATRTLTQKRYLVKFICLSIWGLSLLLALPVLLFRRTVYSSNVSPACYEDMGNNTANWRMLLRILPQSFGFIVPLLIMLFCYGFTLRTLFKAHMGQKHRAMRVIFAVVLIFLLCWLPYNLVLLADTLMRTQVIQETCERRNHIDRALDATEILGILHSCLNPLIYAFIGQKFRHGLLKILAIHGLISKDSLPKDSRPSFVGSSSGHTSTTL
Method: (§1) HEK293FT cells were seeded in 6-well plates at a density of approximately 700,000 cells/well and maintained at 37° C., 5% CO2 in Complete Media (DMEM containing 0.3 mg/ml glutamine, 100 IU/ml penicillin and 100 μg/ml streptomycin (Gibco/Thermo Fisher)) supplemented with 10% fetal calf serum (FCS; Bovogen). Transient transfections were carried out 24 h after seeding using FuGene6™ (Promega) according to manufacturer instructions. 24 h post-transfection, cells were washed with PBS, detached using 0.05% trypsin/0.53 mM EDTA, resuspended in HEPES-buffered phenol red free Complete Media containing 5% FCS and added to a poly-L-lysine-coated white 96-well microplate (Greiner Bio-One). 48 h post-transfection, bioluminescence resonance energy transfer (BRET) assays were carried out following pre-incubation of cells with EnduRen™ (Promega) at a final concentration of 30 μM, at 37° C., 5% CO2 for 2 h. BRET measurements were taken at 37° C. using the LUMlstar™ or CLARIOstar™ (BMG Labtech). Filtered light emissions were measured for 1 s in each of the ‘donor wavelength window’ (460-490 nm for LUMlstar™ or 410-490 nm for CLARIOstar™) and ‘acceptor wavelength window’ (520-550 nm for LUMlstar™ or 520-620 nm for CLARIOstar™).
(§2) The BRET signal observed between interacting proteins is normalized by subtracting the background BRET ratio. This can be done in one of two ways (see Pfleger et al. (2006) Cell Signal 18:1664-1670; Pfleger et al. (2006) Nat Protoc 1:336-344): 1) the ratio of the 520-550 nm or 520-620 nm emission over the 460-490 nm or 410-490 nm emission for a cell sample containing only the donor construct is subtracted from the same ratio for a sample containing the interacting acceptor and donor fusion proteins; 2) the ratio of the 520-550 nm or 520-620 nm emission over the 460-490 nm or 410-490 nm emission for a cell sample treated with vehicle is subtracted from the same ratio for a second aliquot of the same cell sample treated with ligand. In the following examples, the second calculation will be used and the signal is described as ligand-induced BRET′. Furthermore, for data shown in FIGS. 4 to 20, all data points in a given set are corrected relative to the final data point prior to agonist treatment, which is fixed to zero. In keys on FIGS. 7 to 20, “>” means “followed by after 50 minutes”, with agonists added at time zero on the x-axes.
(§3) Referring now to FIG. 3 (published in Tiulpakov et al (2016) Mol. Endocrinol. 30, 889-904), the proximity of Rluc8-tagged receptors to Venus-tagged Kras plasma membrane marker, or Venus-tagged Rabs specific for distinct subcellular locations, is monitored in live cells and in real-time using BRET. The Rab markers are: Venus/Rab5 (5) for early endosomes; Venus/Rab4 (4) for early endosome recycling; Venus/Rab11a (11) for recycling endosomes; Venus/Rab7 (7) for late endosomes/lysosomes; Venus/Rab9 (9) for late endosome trafficking to the trans-Golgi network; Venus/Rab1 (1) for endoplasmic reticulum trafficking to the cis-Golgi; Venus/Rab6 (6) for Golgi apparatus and trans-Golgi network; or Venus/Rab8 (8) for trans-Golgi network to plasma membrane.

AT1R-CXCR2 heteromer = molecular target: T2, AT1R-CXCR2 heteromer (Homo sapiens, UniProt P25025+P30556); experiment: BRET trafficking of AT1R/Rluc8 to Venus/Kras or Venus/Rab markers, presence of unlabelled CXCR2; type: cell-based
T2 sequence (P30556 1-359): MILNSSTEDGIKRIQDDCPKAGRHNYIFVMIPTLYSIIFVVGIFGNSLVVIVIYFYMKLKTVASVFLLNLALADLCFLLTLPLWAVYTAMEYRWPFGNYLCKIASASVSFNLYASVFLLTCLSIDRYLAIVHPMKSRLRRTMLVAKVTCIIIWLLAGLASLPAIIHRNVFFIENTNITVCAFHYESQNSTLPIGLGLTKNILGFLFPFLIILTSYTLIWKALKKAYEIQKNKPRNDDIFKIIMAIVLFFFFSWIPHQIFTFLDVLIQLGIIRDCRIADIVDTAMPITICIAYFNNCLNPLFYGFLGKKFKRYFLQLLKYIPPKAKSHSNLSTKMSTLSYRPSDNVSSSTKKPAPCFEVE
T2 sequence (P25025 1-360): T1 sequence (P25025 1-360)
Method: as §1, §2
The Receptor-Heteromer Investigation Technology (Receptor-HIT) is an assay configuration that provides insights into receptor complexes (Ayoub et al. (2015) PLoS One 10(3):e0119803). It is also known as GPCR-HIT when assessing GPCRs. It is an assay configuration whereby one receptor (eg. CXCR2) is labelled with one component (eg. Renilla luciferase variant Rluc8) of a proximity-based reporter system (eg. BRET), the complementary component of which (eg. Venus yellow fluorescent protein) is fused to a receptor interacting partner (eg. mGsi).
as §3

Angiotensin II [AngII]
proximity of CXCR2/Rluc8 to Venus/Rab6 (BRET) (CXCR2; Golgi apparatus to trans-Golgi network, FIG. 4I): no effect | proximity of CXCR2/Rluc8 to Venus/Rab4 (BRET) (CXCR2; early endosome recycling, FIG. 4E): no effect | proximity of CXCR2/Rluc8 to Venus/Rab5 (BRET) (CXCR2; early endosomes, FIG. 4G): no effect | proximity of CXCR2/Rluc8 to Venus/Rab1 (BRET) (CXCR2; endoplasmic reticulum to cis-Golgi, FIG. 4C): no effect | proximity of CXCR2/Rluc8 to Venus/Rab9 (BRET) (CXCR2; late endosome to trans-Golgi network, FIG. 4O): no effect | proximity of CXCR2/Rluc8 to Venus/Rab7 (BRET) (CXCR2; late endosomes/lysosomes, FIG. 4K): no effect | proximity of CXCR2/Rluc8 to Venus/Kras (BRET) (CXCR2; plasma membrane marker, FIG. 4A): no effect | proximity of CXCR2/Rluc8 to Venus/Rab11a (BRET) (CXCR2; recycling endosomes, FIG. 4Q): no effect | proximity of CXCR2/Rluc8 to Venus/Rab8 (BRET) (CXCR2; trans-Golgi network to plasma membrane, FIG. 4M): no effect | proximity of AT1R/Rluc8 to Venus/Kras (BRET) (AT1R-CXCR2 heteromer): marked reduction; also recorded: does not result in a notable increase | proximity of AT1R/Rluc8 to Venus/Rab1 (BRET) (AT1R-CXCR2 heteromer): increase | proximity of AT1R/Rluc8 to Venus/Rab4 (BRET) (AT1R-CXCR2 heteromer): increase | proximity of AT1R/Rluc8 to Venus/Rab5 (BRET) (AT1R-CXCR2 heteromer): substantial increase | proximity of AT1R/Rluc8 to Venus/Rab7 (BRET) (AT1R-CXCR2 heteromer): increase | proximity of AT1R/Rluc8 to Venus/Rab8 (BRET) (AT1R-CXCR2 heteromer): less of an effect | proximity of AT1R/Rluc8 to Venus/Rab9 (BRET) (AT1R-CXCR2 heteromer): increase | proximity of AT1R/Rluc8 to Venus/Rab11a (BRET) (AT1R-CXCR2 heteromer): substantial increase
